Patent publication US11944628B2, “Methods for the use of low-dose immune modulators transiently for treating patients undergoing protein replacement therapy” (Duke University, priority 2017, dated 2024)
Where “and” joins values, the source holds several entries; their conditions need not be identical. Equal values may be shown once. Entries after “also recorded” stand apart in the source; their conditions may differ. Read-outs that look alike come from different tables or passages of the source. Marks after values point to notes of the source that are not given here.

Key:
[1] = system: anti-rhGAA IgG antibodies; conditions: cited from earlier work
[2] = system: anti-rhGAA IgG antibodies; conditions: 10 LOPD patients, 4 years, annual titers; cited from earlier work
[3] = system: anti-rhGAA IgG antibodies; assay: Anti-rhGAA IgG antibody titers over time (ELISA, confirmed by radioimmunoprecipitation) in Pompe disease patients on ERT with TLD-MTX or on ERT monotherapy (comparators); format: in vivo, human; conditions: for Percent of patients in HSAT group: HSAT: titers >=51,200 on >=2 occasions at or beyond 6 months on ERT; for Percent of patients who developed HSAT or SIT: comparator group n=37, TLD-MTX group n=14; for Percent of patients in SIT group: SIT: titers >=12,800 and <51,200 within first year of ERT; for Overall immune tolerance outcome versus historical data: cohort conclusion in words; for Development of HSAT: methotrexate recipients: Example 2 (n=17), Example 3 (n=14, by data cutoff Jun. 16, 2017)
Protocol: Methotrexate at 0.4 mg/kg body weight was administered subcutaneously (or orally if subcutaneous administration was not possible) on three consecutive days/MTX cycle/infusion; with the first three ERT infusions (i.e., on Days 0, 14, and 28 for patients infused EOW) for a total of 3 cycles. On the day of ERT infusion, methotrexate was administered 15 minutes (if subcutaneous) or 1 hour (if oral) before infusion initiation and again on the following 2 days. To exemplify the schedule, in a patient receiving ERT infusion EOW, methotrexate was administered on Days 0, 1, and 2 (first cycle); Days 14, 15, and 16 (second cycle), and Days 28, 29, and 30 (third cycle). As stated earlier, the dose and frequency of ERT could be increased at the discretion of the treating physician, based on patients' clinical and IAR status, in which case methotrexate cycles were adjusted accordingly (see FIG. 2 for details).
Anti-rhGAA IgG antibodies were determined by Sanofi Genzyme (Framingham, MA, USA) using enzyme-linked immunosorbent assays and confirmed using radioimmunoprecipitation as described previously (Kishnani et al. (2006) J. Pediatr. 149:89-97). Antibody analyses were recommended to be performed at Days −1, 28, 56, 84, 112, 140, 168, 196, 224, 252, 280, 308, 336, and 364.
rhGAA IgG titers were determined over time. Patients were classified into HSAT (≥51,200 on ≥2 occasions at or beyond 6 months on ERT), sustained intermediate titer (SIT) (≥12,800 and <51,200 within the first year of ERT), and low titer (LT; ≤6,400 within the first year of ERT) groups based on the longitudinal anti-rhGAA IgG titers. […] Medians and ranges were determined for baseline, peak, and last titers, although our focus was on longitudinal titers through time because sustained titers affect clinical response.
The comparators received rhGAA alone. The GAA variant data and age at ERT initiation were compared with our cohort of TLD-MTX recipients. Immune responses over time were classified into HSAT, SIT, and LT as defined above, and time to seroconversion, peak titers, titers at Weeks 12, 24, and 52 were compared with our present cohort of TLD-MTX recipients.

[4] = system: anti-rhGAA IgG antibodies; conditions: LOTS, cited from earlier work
[5] = Safety: hematologic and biochemical analyses (ANC, AST, ALT), adverse events and infections in methotrexate recipients; format: in vivo, human; conditions: for Neutropenia (ANC <750 cells/mm^3), percent of patients: transient; for ALT > 3x baseline (Yes/No) / ANC < 750 cells/mm^3 (Yes/No) / AST > 3x baseline (Yes/No): first 6 weeks on alglucosidase alfa
Protocol: On Days −1 (baseline), 13, 28, 42, 56, 84, 168, 252, 336, and 364, blood samples were recommended to be collected for hematologic and biochemical analyses for patients receiving ERT EOW. The sampling schedule was modified for patients receiving ERT weekly (FIG. 2). Complete and differential blood counts and platelets were evaluated and monitored for platelet counts <50,000/mm^3, ANC <750/mm^3, and treatment-resistant infections. Biochemical analyses monitored alanine aminotransferase (ALT), aspartate aminotransferase (AST), creatine kinase (CK), and CK-MB levels. Post-treatment increases in AST and ALT levels were noted if exceeding three times their respective baseline levels.

[6] = system: anti-rhGAA IgG response; conditions: methotrexate alone, transient low dose co-initiated with ERT, Joseph et al. (2008); cited from earlier work
[7] = LT group, IOPD, seropositive titers <100 deemed 50
[8] = individual atypical IOPD patients
[9] = individual SIT patients IOPD13 and IOPD14 (patient named in the cell), listed as TLD-MTX

## Alglucosidase alfa [ERT monotherapy]
[1]; CRIM-positive IOPD, 9 of 23, Banugaria et al. (2011)
  Percent of patients with high antibody titers: 39%
[1]; CRIM-positive patients with IOPD
  Percent of patients developing HSAT: ~40%
[1]; patients with LOPD
  Percent of patients developing HSAT: 10%
[2]
  Highest antibody titer of any patient: ≤ 25,600
[3]; HSAT comparators (5/37)
  Range of peak titers: 51,200-409,600
[3]; HSAT group of 37 CRIM-positive IOPD comparators, median time on ERT Week 94
  Group median last titer: 102,400
[3]; HSAT group, IOPD
  Median peak titers: 204,800 (range, 51,200-409,600)
  Median titers (Week 12): 25,600
  Median titers (Week 24): 25,600
  Median titers (Week 52): 51,200
  Seroconversion week (median time to seroconversion): ≤ 4 weeks
[3]; IOPD
  Percent of patients in HSAT group: 13.5%
  Percent of patients who developed HSAT or SIT: 32.4%
  Percent of patients in SIT group: 18.9%
[3]; LT comparators (23/37 as printed)
  Range of peak titers: 200-12,800
[3]; LT group of 37 CRIM-positive IOPD comparators, median time on ERT Week 130
  Group median last titer: 400
[3]; LT group, IOPD
  Median peak titers: 800 (range, 200-12,800)
  Median titers (Week 12): 400
  Median titers (Week 24): 400
  Seroconversion week (median time to seroconversion): 8 weeks
[3]; [7]
  Median titers (Week 52): 200
[3]; LT: titers <=6,400 within first year of ERT, IOPD
  Percent of patients in LT group: 67.6%
[3]; SIT (IT) comparators (7/37)
  Range of peak titers: 12,800-51,000
[3]; SIT group of 37 CRIM-positive IOPD comparators, median time on ERT Week 104
  Group median last titer: 1,600
[3]; SIT group, IOPD
  Median peak titers: 25,600 (range, 12,800-51,200)
  Median titers (Week 12): 12,800
  Median titers (Week 24): 12,800
  Median titers (Week 52): 3,200
  Seroconversion week (median time to seroconversion): 4 weeks
[4]; LOPD, Week 44
  Geometric mean titer, maximum: 2,925
[4]; LOPD, Week 78
  Geometric mean titer, last: 1,607
  Median last titer: 1,600
[4]; LOPD, median time 12 weeks of alglucosidase alfa therapy
  Median peak titer: 6,400
[4]; first quartile (n=17)
  Peak IgG titer quartile: 200-1,600
[4]; fourth quartile (n=14)
  Peak IgG titer quartile: 25,600-819,200
[4]; second quartile (n=12)
  Peak IgG titer quartile: 3,200
[4]; third quartile (n=16)
  Peak IgG titer quartile: 6,400-12,800

## CN(Cc1cnc2nc(N)nc(N)c2n1)c1ccc(C(=O)N[C@@H](CCC(=O)O)C(=O)O)cc1 [methotrexate]
[5]; 2 of 9 IOPD patients with ANC data (Example 2)
  Neutropenia (ANC <750 cells/mm^3), percent of patients: 22%
[5]; 2 of 13 IOPD patients with ANC data (Example 3)
  Neutropenia (ANC <750 cells/mm^3), percent of patients: 15.4%
[5]; individual IOPD patients
  ALT > 3x baseline (Yes/No): Yes (3×) and No (5×)
  ANC < 750 cells/mm^3 (Yes/No): Yes (2×) and No (7×)
  AST > 3x baseline (Yes/No): No (7×) and Yes
[5]; individual LOPD patients
  ALT > 3x baseline (Yes/No): No
  ANC < 750 cells/mm^3 (Yes/No): No
  AST > 3x baseline (Yes/No): No
[5]; [8]
  ALT > 3x baseline (Yes/No): No
  ANC < 750 cells/mm^3 (Yes/No): No
  AST > 3x baseline (Yes/No): No
[5]; methotrexate recipients
  Overall tolerability: tolerated the methotrexate protocol reasonably
  Serious AEs related to methotrexate: No serious AEs were related to methotrexate
[5]; patients with infection data available (Example 3), resolved
  Patients with hospitalizations related to infections around the time of methotrexate administration: Two of nine
[3]; 17 CRIM-positive IOPD, atypical IOPD and LOPD methotrexate recipients (Example 2), median ~68 weeks on alglucosidase alfa
  Median last titer: 100 (range, 0-6400) and 100 (range 0-6400)
[3]; Example 2 cohort of 17 patients
  Patients remaining seronegative: 1 of 17
[3]; Example 2 cohort, IOPD patient (Patient 3) given one methotrexate dose each in cycles 2 and 3
  Highest observed titer in the study: 12,800
[3]; IOPD
  Percent of patients in HSAT group: 0%
  Percent of patients who developed HSAT or SIT: 14.2%
  Percent of patients in SIT group: 14.2% (n = 2)
[3]; IOPD Patient 3, Week 49
  Titer: 400
[3]; IOPD Patient 3, by Week 20
  Titer: 3200
[3]; LT group, IOPD
  Median peak titers: 3,200
  Median titers (Week 12): 1,600
  Median titers (Week 24): 600
[3]; [7]
  Median titers (Week 52): 250***
[3]; listed as TLD-MTX
  Overall immune tolerance outcome versus historical data: successfully blunted the immune response overall
  Development of HSAT: No patients who received TLD-MTX developed HSAT
[3]; listed as low-dose methotrexate
  Overall immune tolerance outcome versus historical data: successfully induced immune tolerance
[3]; individual IOPD patients (one line per patient), >6 months follow-up, methotrexate 0.4 mg/kg, 3 cycles, with alglucosidase alfa
  Peak antibody titer since immune tolerance induction: 3,200 (3×) and <100 and 200 and 800 (3×) and 6,400
[3]; individual IOPD patients (one line per patient), >6 months follow-up, methotrexate 0.4 mg/kg, 3 cycles, with alglucosidase alfa, single methotrexate dose in cycles 2 and 3
  Peak antibody titer since immune tolerance induction: 12,800*
[3]; individual IOPD patients (one line per patient), last titer at 42-122 weeks on ERT
  Last antibody titer: 0 (4×) and 400 and <100 and 100 (2×) and 6,400
[3]; individual IOPD patients (one line per patient), last titer at 42-122 weeks on ERT, single methotrexate dose in cycles 2 and 3
  Last antibody titer: 400
[3]; individual IOPD patients IOPD1-IOPD14 (one line per patient) on TLD-MTX protocol, >6 months follow-up
  Peak antibody titer: 12,800* and 3,200 (4×) and 200 (2×) and 800 (3×) and 6,400 and 51,200** and 25,600*** and <100
[3]; individual IOPD patients IOPD1-IOPD14 on TLD-MTX protocol, last titer at 32-122 weeks on ERT
  Last antibody titer: 400 (3×) and 0 (4×) and <100 and 100 (2×) and 6,400 and 200 and 12,800 and 12.800
[3]; individual LOPD patients (one line per patient), >6 months follow-up
  Peak antibody titer since immune tolerance induction: 1,600 and 800
[3]; individual LOPD patients, last titer at 63 and 27 weeks on ERT
  Last antibody titer: 0 and 400
[3]; individual SIT patient IOPD13
  Titer (Week 52): IOPD13: 12,800
[3]; [9]
  Peak titer: IOPD13: 51,200;; also recorded: IOPD14: 12,800
  Titer (Week 12): IOPD13: 12,800;; also recorded: IOPD14: 25,600
  Titer (Week 24): IOPD13: 12,800;; also recorded: IOPD14: 12,800
[3]; individual atypical IOPD patients (one line per patient), >6 months follow-up
  Peak antibody titer since immune tolerance induction: 3,200 and Never and <100 and 800 and 200
[3]; individual atypical IOPD patients, last titer at 58-145 weeks on ERT
  Last antibody titer: 400 and 0 and <100 and 200 (2×)
[3]; median of 14 IOPD patients on TLD-MTX protocol
  Peak antibody titer, median: 3,200
[3]; median of 14 IOPD patients on TLD-MTX protocol, median time on ERT ~71 weeks
  Last antibody titer, median: 150 (range, 0-12,800)
[3]
  Development of HSAT: No patients who received methotrexate developed HSAT; also recorded: No methotrexate recipients developed HSAT
[3]; one methotrexate-treated LOPD patient, Weeks 16 and 20
  Maximal titer: 1,600
[3]; patient IOPD2
  Titers remaining (seropositive on screening assay, below limit of titer measurement): < 100
[3]; patient IOPD13, Week 7 only
  Titer: 51,200
[3]; patient IOPD13, Week 76
  Peak titer after the cutoff date (HSAT developed): 102,400
[3]; patient IOPD13, Weeks 12 and 37
  Titer: 25,600
[3]; patient IOPD13, Weeks 14, 17, 23, 31 and 44
  Titer: 12,800
[3]; patient IOPD14, Week 28 only
  Titer: 25,600
[3]; patient IOPD14, Week 36
  Last titer after the cutoff for data collection: 6,400
[3]; patient IOPD14, Weeks 12, 16, 24 and 32
  Titer: 12,800
[3]; same LOPD patient, Week 63
  Titer: 0
[3]; same LOPD patient, Weeks 32-55
  Titer: 100
[3]; the other LOPD patient, Week 27
  Titer: 400
[3]; the other methotrexate-treated LOPD patient, Weeks 9-16
  Maximal titer: 800
[6]
  Effect on anti-rhGAA IgG response: sustainably reduced anti-rhGAA IgG response
